From patent US20240245691A1 (Sitryx Therapeutics Limited, priority 2021, published 2024)
Read-outs that look alike come from different tables or passages of the source.

Legend:
IL-1β = assay: THP-1 AlphaLISA IL-1β cytokine assay (differentiated THP-1 cells); format: cell-based
Method: (§1) Measuring Inhibitory Effects on IL-1V Cytokine and IL-6 Output from THP-1s
(§2) The cytokine inhibition profiles of compounds of formula (I) were determined in a differentiated THP-1 cell assay. All assays were performed in RPMI-1640 growth medium (Gibco), supplemented with 10% fetal bovine serum (FBS; Gibco), 1% penicillin-streptomycin and 1% sodium pyruvate unless specified otherwise. The IL-1β and IL-6 cytokine inhibition assays were run in a background of differentiated THP-1 cells as described below. All reagents described were from Sigma-Aldrich unless specified otherwise. Compounds were prepared as 10 mM DMSO stocks.
(§3) THP-1 cells were expanded as a suspension up to 80% confluence in appropriate growth medium. Cells were harvested, suspended, and treated with an appropriate concentration of phorbol 12-myristate 13-acetate (PMA) over a 72 hr period (37° C./5% CO2).
(§4) Following 72 hrs of THP-1 cell incubation, cellular medium was removed and replaced with fresh growth media containing 1% of FBS. Working concentrations of compounds were prepared separately in 10% FBS treated growth medium and pre-incubated with the cells for 30 minutes (37° C./5% CO2). Following the 30 minute compound pre-incubation, THP-1s were treated with an appropriate concentration of LPS and the THP-1s were subsequently incubated for a 24 hr period (37° C./5% CO2). An appropriate final concentration of Nigericin was then dispensed into the THP-1 plates and incubated for 1 hour (37° C./5% CO2) before THP-1 supernatants were harvested and collected in separate polypropylene 96-well holding plates.
(§5) Reagents from each of the IL-1β and IL-6 commercial kits (Perkin Elmer) were prepared and run according to the manufacturer's instructions. Subsequently, fluorescence signal detection in a microplate reader was measured (EnVision® Multilabel Reader, Perkin Elmer).
(§6) Percentage inhibition was calculated per cytokine by normalising the sample data to the high and low controls used within each plate (+/−LPS respectively).
(§7) Dimethyl itaconate and 4-octyl itaconate were included as comparator compounds.

IL-6 = assay: THP-1 AlphaLISA IL-6 cytokine assay (differentiated THP-1 cells); format: cell-based
Method: as §1, §2, §3, §4, §5, §6, §7

[1] = system: NRF2 (nuclear factor erythroid 2-related factor 2); assay: NRF2 +/-GSH activation assay (DiscoverX PathHunter NRF2 translocation kit, U2OS cells); format: cell-based; settings: for Emax / EC50: Homo sapiens; for Emax: U2OS; for EC50: U2OS PathHunter cells, 6 hours
[2] = Hepatocyte stability assay, mouse; format: in vitro ADME; settings: mouse, hepatocytes, T½
Description: (§8) Defrosted cryo-preserved hepatocytes (viability>70%) were used to determine the metabolic stability of a compound via calculation of intrinsic clearance (CIint; a measure of the removal of a compound from the liver in the absence of blood flow and cell binding). Clearance data are particularly important for in vitro work as they can be used in combination with in vivo data to predict the half-life and oral bioavailability of a drug.
(§9) The metabolic stability in hepatocytes assay involved a time-dependent reaction using both positive and negative controls. The cells must be pre-incubated at 37° C. then spiked with test compound (and positive control); samples taken at pre-determined time intervals were analysed to monitor the change in concentration of the initial drug compound over 60 minutes. A buffer incubation reaction (with no hepatocytes present) acted as a negative control and two cocktail solutions, containing compounds with known high and low clearance values (verapamil/7-hydroxycoumarin and propranolol/diltiazem), acted as positive controls. • 1. The assay was run with a cell concentration of 0.5×10^6 cells/mL in Leibovitz buffer. • 2. All compounds and controls were run in duplicate. • 3. Compound concentration was 10 μM. • 4. All compounds and controls were incubated with both cells and buffer to show turnover is due to hepatic metabolism. • 5. All wells on the incubation plate had 326.7 μL of either cells or buffer added. • 6. Prior to assay, cell and buffer-only incubation plates were preincubated for 10 mins at 37° C. • 7. The assay was initiated by adding compounds, 3.3 μL of 1 mM in 10% DMSO-90% Buffer; final DMSO concentration is 0.1%. • 8. Samples were taken at regular timepoints (0, 5, 10, 20, 40, 60 min) until 60 mins. • 9. Sample volume was 40 μL and added to 160 μL of crash solvent (acetonitrile with internal standard) and stored on ice. • 10. At the end of the assay, the crash plates were centrifuged at 3500 rpm for 20 mins at 4° C. • 11. 80 μL of clear supernatant was removed and mixed with 80 μL of deionised water before being analysed by LC-MS/MS.
(§10) Raw LC-MS/MS data were exported to, and analysed in, Microsoft Excel for determination of intrinsic clearance. The percentage remaining of a compound was monitored using the peak area of the initial concentration as 100%. Intrinsic clearance and half-life values were calculated using a graph of the natural log of percentage remaining versus the time of reaction in minutes.
(§11) 4-Octyl itaconate was included as a comparator compound.

[3] = system: cryo-preserved hepatocytes; assay: Hepatocyte stability assay, mouse; format: in vitro ADME
Description: as §8, §9, §10, §11

[4] = Hepatocyte stability assay, human; format: in vitro ADME; settings: human, hepatocytes, T½
Description: as §8, §9, §10, §11

[5] = system: cryo-preserved hepatocytes; assay: Hepatocyte stability assay, human; format: in vitro ADME
Description: as §8, §9, §10, §11

[6] = Homo sapiens, THP-1, differentiated THP-1 cells, LPS 24 hr then Nigericin 1 hour, read-out: IL-1β (IC50)
[7] = Homo sapiens, THP-1, differentiated THP-1 cells, LPS 24 hr then Nigericin 1 hour, read-out: IL-6 (IC50)
[8] = −GSH, normalised to dimethyl fumarate high control, read-out: NRF2 activation Emax, −GSH
[9] = −GSH, read-out: NRF2 activation EC50, −GSH
[10] = Homo sapiens, THP-1, differentiated THP-1 cells, footnote a: data from repeated experiments, read-out: IL-1β (IC50), data from repeated experiments
[11] = differentiated THP-1 cells, LPS 24 hr then Nigericin 1 hour, read-out: IL-1β (IC50)
[12] = differentiated THP-1 cells, LPS 24 hr then Nigericin 1 hour, read-out: IL-6 (IC50)
[13] = −GSH, normalised to dimethyl fumarate high control
[14] = Human hepatocytes, 10 μM compound, 60 min
[15] = Mouse hepatocytes, 10 μM compound, 60 min

## C=C(CC(=O)N[C@@H](C)c1ccc(C(F)(F)F)cn1)C(=O)OC1CN(C(C)=O)C1 [Example 36, 1-acetylazetidin-3-yl (S)-2-methylene-4-oxo-4-((1-(5-(trifluoromethyl)pyridin-2-yl)ethyl)amino)butanoate]
IL-1β; [6]
  IC50: 3.9 µM
IL-6; [7]
  IC50: > 100 µM
[1]; +GSH, normalised to dimethyl fumarate high control, read-out: NRF2 activation Emax, +GSH
  Emax: 25%
[1]; [8]
  Emax: 65%
[1]; +GSH, read-out: NRF2 activation EC50, +GSH
  EC50: > 100 µM
[1]; [9]
  EC50: 15.9 µM
[2]
  half-life at 10 μM: 0.367 h
[3]; mouse, hepatocytes
  Clint: 61 μL min^−1 10^−6 cells

## C=C(CC(=O)N[C@@H](CO)c1ccc(C(F)(F)F)cc1)C(=O)O [Example 12, (R)-4-((2-hydroxy-1-(4-(trifluoromethyl)phenyl)ethyl)amino)-2-methylene-4-oxobutanoic acid]
IL-1β; [6]
  IC50: 26.6 µM
IL-1β; [10]
  IC50: 35.1 µM
IL-6; [7]
  IC50: > 100 µM

## C=C(CC(=O)NCc1ccc(C(F)(F)F)cc1)C(=O)O [Example 6, 2-methylene-4-oxo-4-((4-(trifluoromethyl)benzyl)amino)butanoic acid]
IL-1β; [6]
  IC50: 25.3 µM
IL-6; [7]
  IC50: > 100 µM

## C=C(CC(=O)N[C@@H](C)c1ccc(C(F)(F)F)cc1)C(=O)OCCNS(C)(=O)=O [Example 25, 2-(methylsulfonamido)ethyl (S)-2-methylene-4-oxo-4-((1-(4-(trifluoromethyl)phenyl)ethyl)amino)butanoate]
IL-1β; [6]
  IC50: 4.1 µM
[4]
  half-life at 10 μM: 1.17 h
[5]; human, hepatocytes
  Clint: 21 μL min^−1 10^−6 cells
[2]
  half-life at 10 μM: 0.183 h
[3]; mouse, hepatocytes
  Clint: 153 μL min^−1 10^−6 cells

## C[C@H](NC(=O)C/C(=C\CCc1ccccc1)C(=O)O)c1ccc(C(F)(F)F)cc1 [Example 46, (S,E)-2-(2-oxo-2-((1-(4-(trifluoromethyl)phenyl)ethyl)amino)ethyl)-5-phenylpent-2-enoic acid]
IL-1β; [6]
  IC50: 2.5 µM
[4]
  half-life at 10 μM: 3.35 h
[5]; human, hepatocytes
  Clint: 7 μL min^−1 10^−6 cells
[2]
  half-life at 10 μM: 0.667 h
[3]; mouse, hepatocytes
  Clint: 37 μL min^−1 10^−6 cells

## C=C(CC(=O)NC(c1ccc(C(F)(F)F)cc1)C1CC1)C(=O)O (centres unmarked) [Example 23, 4-((cyclopropyl(4-(trifluoromethyl)phenyl)methyl)amino)-2-methylene-4-oxobutanoic acid]
IL-1β; [11]
  IC50: 13.4 µM
IL-6; [12]
  IC50: > 100 µM
[5]; human, hepatocytes
  Clint: <3 μL min^−1 10^−6 cells
[5]; human, hepatocytes, 10 μM
  T½: >7.67 h
[3]; mouse, hepatocytes
  Clint: 4 μL min^−1 10^−6 cells
[3]; mouse, hepatocytes, 10 μM
  T½: 5.92 h

## C=C(CC(=O)OCCCCCCCC)C(=O)O [4-octyl itaconate, 4-Octyl itaconate, reference compound]
IL-1β; [11]
  IC50: 38.3 µM
IL-6; [12]
  IC50: 20.3 µM
[1]; +GSH, normalised to dimethyl fumarate high control
  NRF2 activation Emax, +GSH: 148%
[1]; [13]
  NRF2 activation Emax, −GSH: 165%
[5]; [14]
  Clint: 401 μL min^−1 10^−6 cells
  T½: 0.067 h
[3]; [15]
  Clint: 351 μL min^−1 10^−6 cells
  T½: 0.067 h

## C=C(CC(=O)N[C@@H](C)c1ccc(C(F)F)cc1)C(=O)O [Example 18, (S)-4-((1-(4-(difluoromethyl)phenyl)ethyl)amino)-2-methylene-4-oxobutanoic acid]
IL-1β; [6]
  IC50: 56 µM
IL-6; [7]
  IC50: > 31.6 µM

## C=C(CC(=O)OC)C(=O)OC [dimethyl itaconate, Dimethyl itaconate, reference compound]
IL-1β; [6]
  IC50: > 100 µM
IL-6; [7]
  IC50: 100 µM
[1]; [8]
  Emax: 137%
[1]; [9]
  EC50: 21.4 µM
[1]; [13]
  NRF2 activation Emax, −GSH: 137%

## C=C(C(=O)O)C(C)C(=O)N[C@@H](C)c1ccc(C(F)(F)F)cc1 (single isomer, unassigned; isomer 2) [Example 55]
IL-1β; [11]
  IC50: 18.9 µM
IL-6; [12]
  IC50: > 31.6 µM
[5]; human, hepatocytes
  Clint: <3 μL min^−1 10^−6 cells
[5]; human, hepatocytes, 10 μM
  T½: >7.67 h
[3]; mouse, hepatocytes
  Clint: 3 μL min^−1 10^−6 cells
[3]; mouse, hepatocytes, 10 μM
  T½: 7.62 h

## C=C(C(=O)O)C(C)C(=O)NC(C)(C)c1ccc(C(F)(F)F)cc1 (single isomer, unassigned; isomer 1) [Example 52, 3-methyl-2-methylene-4-oxo-4-((2-(4-(trifluoromethyl)phenyl)propan-2-yl)amino)butanoic acid ISOMER 1]
IL-1β; [11]
  IC50: 18.7 µM
[4]
  half-life at 10 μM: > 7.67 h
[5]; human, hepatocytes
  Clint: <3 μL min^−1 10^−6 cells
[2]
  half-life at 10 μM: 7.18 h
[3]; mouse, hepatocytes, 10 μM
  T½: >7.67 h

## C=C(CC(=O)N[C@@H](C)c1ccc(Cl)cc1)C(=O)O [Example 15, (S)-4-((1-(4-chlorophenyl)ethyl)amino)-2-methylene-4-oxobutanoic acid]
IL-1β; [6]
  IC50: 33.7 µM
IL-1β; [10]
  IC50: 32.6 µM
IL-6; [7]
  IC50: > 61.1 µM

## C=C(C(=O)O)C(C)C(=O)NC(C)(C)c1ccc(C(F)(F)F)cc1 (single isomer, unassigned) [Example 53, 3-methyl-2-methylene-4-oxo-4-((2-(4-(trifluoromethyl)phenyl)propan-2-yl)amino)butanoic acid]
IL-1β; [11]
  IC50: 9.3 µM
IL-6; [7]
  IC50: > 100 µM
[5]; human, hepatocytes
  Clint: <3 μL min^−1 10^−6 cells
[5]; human, hepatocytes, 10 μM
  T½: >7.67 h
[3]; mouse, hepatocytes
  Clint: 5 μL min^−1 10^−6 cells
[3]; mouse, hepatocytes, 10 μM
  T½: 4.78 h

## C=C(CC(=O)N[C@@H](C)c1ccc(C(F)(F)F)cn1)C(=O)OC1CCN(C(C)=O)CC1 [Example 35, 1-acetylpiperidin-4-yl (S)-2-methylene-4-oxo-4-((1-(5-(trifluoromethyl)pyridin-2-yl)ethyl)amino)butanoate]
IL-1β; [6]
  IC50: 42.7 µM
IL-6; [7]
  IC50: 11.9 µM

## C=C(CC(=O)N[C@@H](C)c1ccc(C(F)(F)F)nc1)C(=O)O [Example 38, (S)-2-methylene-4-oxo-4-((1-(6-(trifluoromethyl)pyridin-3-yl)ethyl)amino) butanoic acid]
IL-1β; [6]
  IC50: 29.6 µM
IL-6; [7]
  IC50: > 100 µM

## C=C(CC(=O)N[C@@H](CC)c1ccc(C(F)(F)F)cc1)C(=O)O [Example 8, (S)-2-methylene-4-oxo-4-((1-(4-(trifluoromethyl)phenyl)propyl)amino)butanoic acid]
IL-1β; [6]
  IC50: 43.5 µM
IL-6; [7]
  IC50: > 100 µM

## C=C(C(=O)O)C(C)C(=O)NC(C)(C)c1ccc(C(F)(F)F)cc1 (centres unmarked) [Example 51, 3-methyl-2-methylene-4-oxo-4-((2-(4-(trifluoromethyl)phenyl)propan-2-yl)amino)butanoic acid]
IL-1β; Homo sapiens, THP-1, read-out: IL-1β (IC50)
  IC50: 10.2 µM
IL-6; Homo sapiens, THP-1, read-out: IL-6 (IC50)
  IC50: > 100 µM
[4]
  half-life at 10 μM: > 7.67 h
[5]; human, hepatocytes
  Clint: <3 μL min^−1 10^−6 cells
